Data: patent US8574563B2 (Bristol-Myers Squibb Company, priority 2006, dated 2013)

The molecules below were run on HCV 1b-377-neo replicon cells (assay: HCV replicon assay, HCV 1b-377-neo replicon cells (1b FRET)). Details: HCV 1b-377-neo replicon cells; HCV 1b genotype; read-out: EC50 range against HCV 1b (Table 2, Range).
Type: cell-based, Hepatitis C virus genotype 1b
Outline: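 Compounds tested in HCV genotype 1b-377-neo replicon cells with a FRET read-out. Cells resistant to a reference NS5A inhibitor through a Y2065H NS5A mutation were run alongside wild-type cells.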

SMILES | EC50
O=C(C(c1ccccc1)N1CC[C@H](F)C1)N1CCC[C@H]1c1ncc(-c2ccc(-c3ccc(-c4cnc([C@@H]5CCCN5C(=O)C(c5ccccc5)N5CC[C@H](F)C5)[nH]4)cc3)cc2)[nH]1 (stereo partly drawn) [Example 20, 5,5′-(4,4′-biphenyldiyl)bis(2-((2S)-1-(((3S)-3-fluoro-1-pyrrolidinyl)(phenyl)acetyl)-2-pyrrolidinyl)-1H-imidazole)] | 1 to 99 nM

Same assay, conditions: Hepatitis C virus, HCV 1b-377-neo replicon cells; HCV 1b genotype; read-out: EC50 range against HCV 1b (Table 2, Range)

SMILES | EC50
COC(=O)N[C@H](C(=O)N1CCC[C@H]1c1ncc(-c2cnc(-c3ccc(-c4[nH]c([C@@H]5CCCN5C(=O)[C@@H](NC(=O)OC)C(C)C)nc4C(F)(F)F)cc3)nc2)[nH]1)C(C)C [Example J48, methyl ((1S)-1-(((2S)-2-(5-(2-(4-(2-((2S)-1-((2S)-2-((methoxycarbonyl)amino)-3-methylbutanoyl)-2-pyrrolidinyl)-4-(trifluoromethyl)-1H-imidazol-5-yl)phenyl)-5-pyrimidinyl)-1H-imidazol-2-yl)-1-pyrrolidinyl)carbonyl)-2-methylpropyl)carbamate] | 0.001 to 0.999 nM
O=C([C@@H](c1ccccc1)N1CCCCC1)N1CCC[C@H]1c1ncc(-c2ccc(-c3ncc(-c4cnc([C@@H]5CCCN5C(=O)[C@@H](c5ccccc5)N5CCCCC5)[nH]4)cn3)cc2)[nH]1 [Example 152j-5, 5-(2-((2S)-1-((2R)-2-phenyl-2-(1-piperidinyl)acetyl)-2-pyrrolidinyl)-1H-imidazol-5-yl)-2-(4-(2-((2S)-1-((2R)-2-phenyl-2-(1-piperidinyl)acetyl)-2-pyrrolidinyl)-1H-imidazol-4-yl)phenyl)pyrimidine] | 0.001 to 0.999 nM
COC(=O)N[C@@H](C(=O)N1CCC[C@H]1c1ncc(-c2ccc(-c3ccc(-c4cnc([C@@H]5CCCN5C(=O)C5CCN(C)CC5)[nH]4)cn3)cc2)[nH]1)c1ccccc1 [Example 142, methyl ((1R)-2-((2S)-2-(5-(4-(5-(2-((2S)-1-((1-methyl-4-piperidinyl)carbonyl)-2-pyrrolidinyl)-1H-imidazol-5-yl)-2-pyridinyl)phenyl)-1H-imidazol-2-yl)-1-pyrrolidinyl)-2-oxo-1-phenylethyl)carbamate] | 1 to 99 nM
COC(=O)N[C@@H](C(=O)N(C)[C@@H](C)c1ncc(-c2ccc(-c3ncc(-c4cnc([C@@H]5CCCN5C(=O)[C@H](NC(=O)OC)c5ccccc5)[nH]4)cn3)cc2)[nH]1)c1ccccc1 [Example 152j-21, methyl ((1R)-2-((2S)-2-(5-(2-(4-(2-((1S)-1-(((2R)-2-((methoxycarbonyl)amino)-2-phenylacetyl)(methyl)amino)ethyl)-1H-imidazol-5-yl)phenyl)-5-pyrimidinyl)-1H-imidazol-2-yl)-1-pyrrolidinyl)-2-oxo-1-phenylethyl)carbamate] | 0.001 to 0.999 nM
COC(=O)N[C@@H](C(=O)N[C@@H](C)c1ncc(-c2ccc(-c3ncc(-c4cnc([C@@H]5CCCN5C(=O)[C@H](NC(=O)OC)c5ccccc5)[nH]4)cn3)cc2)[nH]1)c1ccccc1 [Example 152j-15, methyl ((1R)-2-((2S)-2-(5-(2-(4-(2-((1S)-1-(((2R)-2-((methoxycarbonyl)amino)-2-phenylacetyl)amino)ethyl)-1H-imidazol-5-yl)phenyl)-5-pyrimidinyl)-1H-imidazol-2-yl)-1-pyrrolidinyl)-2-oxo-1-phenylethyl)carbamate] | 0.001 to 0.999 nM
CCN(CC)[C@@H](C(=O)N1CCC[C@H]1c1ncc(-c2ccc(-c3ccc(-c4cnc([C@@H]5CCCN5C(=O)[C@@H](NC(=O)OC)C(C)C)[nH]4)cc3)cc2F)[nH]1)c1ccccc1 [Example D44, methyl ((1S)-1-(((2S)-2-(5-(4′-(2-((2S)-1-((2R)-2-(diethylamino)-2-phenylacetyl)-2-pyrrolidinyl)-1H-imidazol-5-yl)-3′-fluoro-4-biphenylyl)-1H-imidazol-2-yl)-1-pyrrolidinyl)carbonyl)-2-methylpropyl) carbamate] | 0.001 to 0.999 nM
